Laboratory results taken from ChEMBL document CHEMBL1130155, “Synthesis and structure-activity relationships of potent thrombin inhibitors: piperazides of 3-amidinophenylalanine” (J Med Chem, 1997).

Key:
Serine protease 1 = target: T1, Serine protease 1 (Bos taurus, UniProt P00760); assay: Inhibitory activity against trypsin
T1 sequence (P00760 whole entry): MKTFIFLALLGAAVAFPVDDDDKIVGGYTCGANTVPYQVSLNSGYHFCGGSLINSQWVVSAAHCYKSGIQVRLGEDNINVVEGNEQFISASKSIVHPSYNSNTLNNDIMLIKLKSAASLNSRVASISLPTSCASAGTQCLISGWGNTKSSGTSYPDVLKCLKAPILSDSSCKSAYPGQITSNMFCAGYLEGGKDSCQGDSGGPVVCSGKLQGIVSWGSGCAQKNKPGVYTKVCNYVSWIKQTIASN

Prothrombin = Prothrombin (Bos taurus, UniProt P00735)
Description: Inhibitory activity against thrombin

Plasminogen [1] = target: T2, Plasminogen (Homo sapiens, UniProt P00747); assay: Inhibitory activity against plasmin
Coagulation factor X = Coagulation factor X (Bos taurus, UniProt P00743); assay: Inhibitory activity against coagulation factor X.
[2] = target: Urokinase-type plasminogen activator (Homo sapiens, UniProt P00749); assay: Inhibitory activity against UK.
[3] = target: Vitamin K-dependent protein C (Homo sapiens, UniProt P04070); assay: Inhibitory activity against Activated protein C
Plasma kallikrein = Plasma kallikrein (Homo sapiens, UniProt P03952); assay: Inhibitory activity against Kallikrein (PK)
Coagulation factor XII = target: T3, Coagulation factor XII (Homo sapiens, UniProt P00748); assay: Inhibitory activity against Coagulation factor XII
T3 sequence (P00748 whole entry): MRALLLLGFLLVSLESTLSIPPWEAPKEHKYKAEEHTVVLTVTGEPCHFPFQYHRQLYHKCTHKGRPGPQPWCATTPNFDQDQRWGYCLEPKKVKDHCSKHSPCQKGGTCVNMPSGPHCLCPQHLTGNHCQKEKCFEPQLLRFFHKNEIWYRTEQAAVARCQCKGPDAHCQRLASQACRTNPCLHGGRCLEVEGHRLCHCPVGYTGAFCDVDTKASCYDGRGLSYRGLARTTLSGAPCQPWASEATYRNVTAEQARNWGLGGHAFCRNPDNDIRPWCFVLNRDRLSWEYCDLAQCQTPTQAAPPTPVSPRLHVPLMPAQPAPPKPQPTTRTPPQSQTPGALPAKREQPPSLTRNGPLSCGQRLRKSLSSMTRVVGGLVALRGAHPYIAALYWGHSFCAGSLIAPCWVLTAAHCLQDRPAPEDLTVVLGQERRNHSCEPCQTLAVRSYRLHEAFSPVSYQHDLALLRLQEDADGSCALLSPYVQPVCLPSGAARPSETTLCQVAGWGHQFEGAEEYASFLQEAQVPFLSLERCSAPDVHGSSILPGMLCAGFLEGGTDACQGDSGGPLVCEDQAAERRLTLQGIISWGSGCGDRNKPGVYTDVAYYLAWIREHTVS

[4] = target: Tissue-type plasminogen activator (Homo sapiens, UniProt P00750); assay: Inhibitory activity against single-chain tissue-type plasminogen activator (sc-tissue plasminogen activator)
Plasminogen [5] = target: T2, Plasminogen; assay: Inhibitory activity against Plasmin.
[6] = Concentration for doubling of thrombin time; assay type: functional, Homo sapiens
[7] = Concentration for doubling of partial thromboplastin time; assay type: functional, Homo sapiens
[8] = Concentration for doubling of prothrombin time; assay type: functional, Homo sapiens

Coagulation factor X, sequence (P00743 41-180 limits assumed): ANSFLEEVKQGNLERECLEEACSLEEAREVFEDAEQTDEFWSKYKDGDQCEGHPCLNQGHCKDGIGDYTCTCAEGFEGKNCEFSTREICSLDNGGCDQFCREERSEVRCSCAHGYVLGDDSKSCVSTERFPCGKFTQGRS
Coagulation factor X, sequence (P00743 234-492 limits assumed): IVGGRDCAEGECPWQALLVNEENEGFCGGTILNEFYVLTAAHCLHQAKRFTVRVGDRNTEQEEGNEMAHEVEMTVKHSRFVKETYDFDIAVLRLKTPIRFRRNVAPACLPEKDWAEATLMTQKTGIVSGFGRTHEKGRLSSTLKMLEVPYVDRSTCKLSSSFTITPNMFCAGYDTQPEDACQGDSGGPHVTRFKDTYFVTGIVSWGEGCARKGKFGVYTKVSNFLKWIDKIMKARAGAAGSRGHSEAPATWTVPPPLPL
T2 sequence (P00747 97-580 limits assumed): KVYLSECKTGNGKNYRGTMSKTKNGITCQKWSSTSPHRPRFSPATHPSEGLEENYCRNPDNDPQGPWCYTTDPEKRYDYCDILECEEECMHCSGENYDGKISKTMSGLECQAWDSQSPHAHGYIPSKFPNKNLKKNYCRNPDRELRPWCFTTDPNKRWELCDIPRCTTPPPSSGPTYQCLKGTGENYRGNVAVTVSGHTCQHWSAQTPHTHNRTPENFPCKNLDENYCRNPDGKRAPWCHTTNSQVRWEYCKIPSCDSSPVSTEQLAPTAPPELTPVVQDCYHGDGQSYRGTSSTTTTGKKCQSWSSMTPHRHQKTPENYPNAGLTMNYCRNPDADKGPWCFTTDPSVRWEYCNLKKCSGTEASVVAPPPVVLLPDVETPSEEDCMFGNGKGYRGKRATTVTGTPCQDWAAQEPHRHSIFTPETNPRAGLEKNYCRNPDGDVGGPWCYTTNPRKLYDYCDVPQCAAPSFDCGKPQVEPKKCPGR
T2 sequence (P00747 581-810 limits assumed): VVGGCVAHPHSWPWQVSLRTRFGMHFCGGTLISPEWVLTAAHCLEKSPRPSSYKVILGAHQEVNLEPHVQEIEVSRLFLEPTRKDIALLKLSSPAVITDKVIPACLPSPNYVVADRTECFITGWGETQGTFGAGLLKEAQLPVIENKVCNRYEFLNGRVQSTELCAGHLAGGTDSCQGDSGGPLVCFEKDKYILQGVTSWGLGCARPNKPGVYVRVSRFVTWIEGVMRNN
Vitamin K-dependent protein C, sequence (P04070 43-197 limits assumed): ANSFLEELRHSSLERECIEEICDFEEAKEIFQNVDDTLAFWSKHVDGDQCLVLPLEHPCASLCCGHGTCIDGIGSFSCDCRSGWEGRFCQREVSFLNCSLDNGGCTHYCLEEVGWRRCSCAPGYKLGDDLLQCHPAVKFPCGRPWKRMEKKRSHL
Vitamin K-dependent protein C, sequence (P04070 212-461 limits assumed): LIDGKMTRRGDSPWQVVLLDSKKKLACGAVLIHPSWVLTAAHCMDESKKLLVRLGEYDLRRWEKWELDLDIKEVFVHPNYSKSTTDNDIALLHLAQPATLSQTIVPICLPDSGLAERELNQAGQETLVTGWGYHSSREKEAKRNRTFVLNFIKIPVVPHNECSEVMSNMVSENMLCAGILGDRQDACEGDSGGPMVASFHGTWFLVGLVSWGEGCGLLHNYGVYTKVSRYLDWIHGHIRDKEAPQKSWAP
Plasma kallikrein, sequence (P03952 20-390 limits assumed): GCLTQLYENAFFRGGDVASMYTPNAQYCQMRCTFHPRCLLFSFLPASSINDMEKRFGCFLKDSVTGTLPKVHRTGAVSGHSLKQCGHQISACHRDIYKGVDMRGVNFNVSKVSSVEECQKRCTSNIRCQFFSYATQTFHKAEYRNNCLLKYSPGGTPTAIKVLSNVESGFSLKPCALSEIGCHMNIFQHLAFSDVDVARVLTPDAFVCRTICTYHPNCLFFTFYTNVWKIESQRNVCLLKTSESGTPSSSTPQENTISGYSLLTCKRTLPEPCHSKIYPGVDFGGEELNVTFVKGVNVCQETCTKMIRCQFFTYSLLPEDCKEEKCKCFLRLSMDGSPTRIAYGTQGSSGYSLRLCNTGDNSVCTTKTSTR
Plasma kallikrein, sequence (P03952 391-638 limits assumed): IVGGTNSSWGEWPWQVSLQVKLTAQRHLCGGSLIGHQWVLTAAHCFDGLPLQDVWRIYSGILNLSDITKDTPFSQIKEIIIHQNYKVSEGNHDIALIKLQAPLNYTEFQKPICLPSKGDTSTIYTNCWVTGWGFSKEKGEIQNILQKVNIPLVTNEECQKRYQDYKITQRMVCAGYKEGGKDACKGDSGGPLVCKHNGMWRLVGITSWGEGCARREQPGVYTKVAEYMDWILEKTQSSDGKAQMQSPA
Tissue-type plasminogen activator, sequence (P00750 whole entry): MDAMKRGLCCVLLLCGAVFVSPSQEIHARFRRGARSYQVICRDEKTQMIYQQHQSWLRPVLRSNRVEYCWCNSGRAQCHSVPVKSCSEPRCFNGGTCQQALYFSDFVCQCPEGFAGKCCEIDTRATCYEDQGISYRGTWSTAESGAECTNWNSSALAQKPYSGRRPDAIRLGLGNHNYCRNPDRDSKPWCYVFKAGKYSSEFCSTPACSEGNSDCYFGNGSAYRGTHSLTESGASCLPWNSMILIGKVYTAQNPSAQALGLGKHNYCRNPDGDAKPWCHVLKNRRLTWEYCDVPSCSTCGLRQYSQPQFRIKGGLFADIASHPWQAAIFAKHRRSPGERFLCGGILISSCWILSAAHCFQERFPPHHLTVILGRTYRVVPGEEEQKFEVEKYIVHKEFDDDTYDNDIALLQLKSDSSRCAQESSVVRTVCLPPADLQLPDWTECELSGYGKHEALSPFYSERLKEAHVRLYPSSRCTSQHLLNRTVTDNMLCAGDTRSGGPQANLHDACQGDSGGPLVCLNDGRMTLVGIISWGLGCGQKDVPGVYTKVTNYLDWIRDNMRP

SMILES	Ki (Serine protease 1)	Ki (Prothrombin)	Ki (Plasminogen [1])	Ki (Coagulation factor X)	also measured
N=C(N)c1cccc(C[C@H](NS(=O)(=O)c2ccc3ccccc3c2)C(=O)N2CCN(CCO)CC2)c1	39 µM	5.6 µM			
CS(=O)(=O)N1CCN(C(=O)C(Cc2cccc(C(=N)N)c2)NS(=O)(=O)c2ccc3ccccc3c2)CC1 (stereo not given)	0.19 µM				
N=C(N)c1cccc(CC(NS(=O)(=O)c2ccc3ccccc3c2)C(=O)N2CCCCC2)c1 (stereo not given)			7 µM	38 µM	
N=C(N)c1cccc(CC(NS(=O)(=O)c2ccc3ccccc3c2)C(=O)N2CCN(C(=O)c3ccccc3)CC2)c1 (stereo not given)	0.14 µM	7.6 µM	7.2 µM	16 µM	
CC(=O)N1CCN(C(=O)[C@H](Cc2cccc(C(=N)N)c2)NS(=O)(=O)c2ccc3ccccc3c2)CC1	17 µM				
N=C(N)c1cccc(CC(NS(=O)(=O)c2ccc3ccccc3c2)C(=O)N2CCN(CCO)CC2)c1 (stereo not given)	1.1 µM				
CS(=O)(=O)N1CCN(C(=O)C(Cc2cccc(C(=N)N)c2)NS(=O)(=O)c2ccccc2)CC1 (stereo not given)	1 µM	0.22 µM	29 µM	29 µM	
N=C(N)c1cccc(CC(NS(=O)(=O)c2ccc3ccccc3c2)C(=O)N2CCN(c3ccccc3)CC2)c1 (stereo not given)			2.6 µM	27 µM	
COc1cc(C)c(S(=O)(=O)NC(Cc2cccc(C(=N)N)c2)C(=O)N2CCN(S(C)(=O)=O)CC2)c(C)c1C (stereo not given)	1.8 µM				
N=C(N)c1cccc(CC(NS(=O)(=O)c2ccc3ccccc3c2)C(=O)N2CCN(C(=O)c3ccc4ccccc4c3)CC2)c1 (stereo not given)	0.19 µM	0.46 µM	3 µM	7.3 µM	
N=C(N)c1cccc(C[C@H](NS(=O)(=O)c2ccc3ccccc3c2)C(=O)N2CCN(C=O)CC2)c1	11.1 µM	1.6 µM			
Cc1ccc(S(=O)(=O)N2CCN(C(=O)C(Cc3cccc(C(=N)N)c3)NS(=O)(=O)c3ccc4ccccc4c3)CC2)cc1 (stereo not given)	0.22 µM				
CCCS(=O)(=O)N1CCN(C(=O)C(Cc2cccc(C(=N)N)c2)NS(=O)(=O)c2ccc3ccccc3c2)CC1 (stereo not given)	0.21 µM	0.28 µM	7.8 µM	22 µM	
CC(=O)N1CCN(C(=O)C(Cc2cccc(C(=N)N)c2)NS(=O)(=O)c2ccc3ccccc3c2)CC1 (stereo not given)	0.14 µM				
CN1CCN(C(=O)C(Cc2cccc(C(=N)N)c2)NS(=O)(=O)c2ccc3ccccc3c2)CC1 (stereo not given)		0.036 µM	55 µM	30 µM	
CCN(CC)C(=O)N1CCN(C(=O)C(Cc2cccc(C(=N)N)c2)NS(=O)(=O)c2ccc3ccccc3c2)CC1 (stereo not given)	0.22 µM	0.51 µM	14 µM	12 µM	
Cc1c(C)c(S(=O)(=O)N[C@H](Cc2cccc(C(=N)N)c2)C(=O)N2CCN(S(C)(=O)=O)CC2)c(C)c2c1OC(C)(C)CC2	0.32 µM	0.0053 µM		41 µM	Ki [2]: 58 µM; Ki [3]: 180 µM; Ki (Plasma kallikrein): 97 µM; Ki (Coagulation factor XII): > 1000 µM; Ki [4]: 470 µM
CN(C)C(=O)N1CCN(C(=O)C(Cc2cccc(C(=N)N)c2)NS(=O)(=O)c2ccc3ccccc3c2)CC1 (stereo not given)	0.17 µM				
Cc1c(C)c(S(=O)(=O)NC(Cc2cccc(C(=N)N)c2)C(=O)N2CCN(S(C)(=O)=O)CC2)c(C)c2c1OC(C)(C)CC2 (stereo not given)	0.76 µM				
N=C(N)c1cccc(CC(NS(=O)(=O)c2ccc3ccccc3c2)C(=O)N2CCN(C(=O)C3CCCCC3)CC2)c1 (stereo not given)	0.072 µM				
N=C(N)c1cccc(CC(NS(=O)(=O)c2ccc3ccccc3c2)C(=O)N2CCN(S(=O)(=O)c3ccccc3)CC2)c1 (stereo not given)	0.33 µM				

SMILES	Ki (Serine protease 1)	Ki (Prothrombin)	Ki (Plasminogen [1])	Ki (Coagulation factor X)	also measured
CC(C)c1cc(C(C)C)c(S(=O)(=O)NC(Cc2cccc(C(=N)N)c2)C(=O)N2CCN(S(C)(=O)=O)CC2)c(C(C)C)c1 (stereo not given)			6.4 µM	7.4 µM	
CN(C)C(=O)N1CCN(C(=O)[C@H](Cc2cccc(C(=N)N)c2)NS(=O)(=O)c2ccc3ccccc3c2)CC1	8.5 µM	0.35 µM			
CC1(C)C2CCC1(CCS(=O)(=O)N[C@H](Cc1cccc(C(=N)N)c1)C(=O)N1CCN(S(C)(=O)=O)CC1)C(=O)C2 (stereo not given in full)	0.22 µM	0.012 µM		1.1 µM	Ki [2]: 49 µM; Ki (Plasminogen [5]): 14 µM; Ki [3]: 33 µM; Ki (Plasma kallikrein): 22 µM; Ki (Coagulation factor XII): 55 µM; Ki [4]: 20 µM
N=C(N)c1cccc(CC(NS(=O)(=O)c2ccc3ccccc3c2)C(=O)N2CCNCC2)c1 (stereo not given)			10.2 µM	21 µM	
COC(=O)N1CCN(C(=O)C(Cc2cccc(C(=N)N)c2)NS(=O)(=O)c2ccc3ccccc3c2)CC1 (stereo not given)			2.8 µM	77 µM	
CN1CCN(C(=O)[C@H](Cc2cccc(C(=N)N)c2)NS(=O)(=O)c2ccc3ccccc3c2)CC1	73 µM	7.1 µM			
N=C(N)c1cccc(CC(NS(=O)(=O)c2ccc3ccccc3c2)C(=O)N2CCN(S(=O)(=O)c3ccc4ccccc4c3)CC2)c1 (stereo not given)	0.4 µM				
CCCCS(=O)(=O)N1CCN(C(=O)C(Cc2cccc(C(=N)N)c2)NS(=O)(=O)c2ccc3ccccc3c2)CC1 (stereo not given)	0.18 µM	0.35 µM	11 µM	18 µM	
CCOC(=O)N1CCN(C(=O)C(Cc2cccc(C(=N)N)c2)NS(=O)(=O)c2ccc3ccccc3c2)CC1 (stereo not given)	0.022 µM	0.67 µM	2.5 µM	54 µM	
N=C(N)c1cccc(CC(NS(=O)(=O)c2ccc3ccccc3c2)C(=O)N2CCN(C(=O)Oc3ccccc3)CC2)c1 (stereo not given)	0.028 µM	17 µM	2.3 µM	43 µM	
CS(=O)(=O)N1CCN(C(=O)[C@H](Cc2cccc(C(=N)N)c2)NS(=O)(=O)c2ccc3ccccc3c2)CC1	13 µM				
CCS(=O)(=O)N1CCN(C(=O)C(Cc2cccc(C(=N)N)c2)NS(=O)(=O)c2ccc3ccccc3c2)CC1 (stereo not given)	0.19 µM				
CCCCCC(=O)N1CCN(C(=O)C(Cc2cccc(C(=N)N)c2)NS(=O)(=O)c2ccc3ccccc3c2)CC1 (stereo not given)	0.064 µM				
CS(=O)(=O)N1CCN(C(=O)C(N)Cc2cccc(C(=N)N)c2)CC1 (stereo not given)			> 1000 µM	> 1000 µM	
N=C(N)c1cccc(CC(NS(=O)(=O)c2ccc3ccccc3c2)C(=O)N2CCN(C=O)CC2)c1 (stereo not given)	0.22 µM				
CC(C)(C)c1ccc(S(=O)(=O)NC(Cc2cccc(C(=N)N)c2)C(=O)N2CCN(S(C)(=O)=O)CC2)cc1 (stereo not given)			14 µM		
CCCC(=O)N1CCN(C(=O)C(Cc2cccc(C(=N)N)c2)NS(=O)(=O)c2ccc3ccccc3c2)CC1 (stereo not given)	0.049 µM	1.04 µM	8.6 µM	80 µM	
CC1CCN(C(=O)C(Cc2cccc(C(=N)N)c2)NS(=O)(=O)c2ccc3ccccc3c2)CC1 (stereo not given)			5.2 µM	41 µM	
CC1CNc2c(cccc2S(=O)(=O)N[C@@H](CCCNC(=N)N)C(=O)N2CCC(C)C[C@@H]2C(=O)O)C1 (single isomer, unassigned) [ARGATROBAN]					IC50 [6]: 0.062 µM; IC50 [7]: 0.42 µM; IC50 [8]: 0.66 µM
CC1(C)C2CCC1(CCS(=O)(=O)NC(Cc1cccc(C(=N)N)c1)C(=O)N1CCN(S(C)(=O)=O)CC1)C(=O)C2 (stereo in doubt; 28)	0.22 µM	0.012 µM	14 µM	1.1 µM	
CC1(C)C2CCC1(CCS(=O)(=O)NC(Cc1cccc(C(=N)N)c1)C(=O)N1CCN(S(C)(=O)=O)CC1)C(=O)C2 (stereo in doubt; 30)	0.44 µM	0.031 µM	29 µM	6.7 µM	
